# According to patent US20230159532A1, “PARATHYROID HORMONE (PTH) RECEPTOR ANTAGONISTS AND USES THEREOF” (Crinetics Pharmaceuticals, Inc., priority 2021, published 2023):
# Molecular target: T1, human PTHR1 receptor (Homo sapiens, UniProt Q03431)
# T1 construct: purchased Eurofins HTS030M
# T1 sequence (Q03431 27-593): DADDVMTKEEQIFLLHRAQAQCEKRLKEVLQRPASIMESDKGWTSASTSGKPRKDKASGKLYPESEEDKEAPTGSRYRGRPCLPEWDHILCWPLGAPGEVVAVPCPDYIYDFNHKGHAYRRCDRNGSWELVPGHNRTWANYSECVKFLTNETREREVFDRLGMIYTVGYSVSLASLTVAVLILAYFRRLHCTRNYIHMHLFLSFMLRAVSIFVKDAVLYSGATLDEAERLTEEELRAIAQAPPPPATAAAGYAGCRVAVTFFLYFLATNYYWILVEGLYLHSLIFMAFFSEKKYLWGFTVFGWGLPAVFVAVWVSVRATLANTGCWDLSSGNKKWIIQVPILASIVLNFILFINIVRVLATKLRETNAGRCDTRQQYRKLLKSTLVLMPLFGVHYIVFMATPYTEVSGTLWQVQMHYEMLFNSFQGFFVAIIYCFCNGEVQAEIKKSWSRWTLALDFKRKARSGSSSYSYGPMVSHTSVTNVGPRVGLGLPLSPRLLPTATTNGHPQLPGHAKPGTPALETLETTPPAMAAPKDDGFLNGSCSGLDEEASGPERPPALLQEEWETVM
# Assay: Competitive antagonist binding assay for hPTH-R1 (radioactive competition binding, SPA beads)
# Details: human PTHR1 membranes, [125I]-[Nle8,18,Tyr34]-PTH(1-34) 0.2 nM, 90 minutes at room temperature; read-out: hPTHR1 Ki
# Procedure, shortened: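 Displacement of 0.2 nM radioiodinated [Nle8,18,Tyr34]-PTH(1-34) from membrane-bound human PTHR1 measured by scintillation proximity after 90 min at room temperature. Compounds typically 0-10,000 nM final, pH 7.4 HEPES/Mg/Ca buffer with BSA and detergent. Ki calculated from competition data.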
row,SMILES,Ki [nM]
1,"CCN1C(=O)N(c2c(F)cc(NCCNC[C@H]3CCC(=O)N3)cc2F)c2cc(C#N)ccc2-c2cc(Cl)cnc21 [1-170, 4-chloro-10-(2,6-difluoro-4-{[2-({[(2R)-5-oxopyrrolidin-2-yl]methyl}amino)ethyl]amino}phenyl)-8-ethyl-9-oxo-6,8,10-triazatricyclo[9.4.0.0^2,7]pentadeca-1(11),2(7),3,5,12,14-hexaene-13-carbonitrile]",< 100
2,"CCN1C(=O)N(c2c(F)cc(N[C@H](C)CNC)cc2F)c2cc(C#N)ccc2-c2cc(Cl)cnc21 [1-159, 4-chloro-10-(2,6-difluoro-4-{[(2R)-1-(methylamino)propan-2-yl]amino}phenyl)-8-ethyl-9-oxo-6,8,10-triazatricyclo[9.4.0.0^2,7]pentadeca-1(11),2(7),3,5,12,14-hexaene-13-carbonitrile]",< 100
3,"CCN1C(=O)N(c2c(F)cc(NCCNCCO)cc2F)c2nc(C#N)ccc2-c2cc(F)cnc21 [3-14, 8-[2,6-difluoro-4-({2-[(2-hydroxyethyl)amino]ethyl}amino)phenyl]-10-ethyl-14-fluoro-9-oxo-6,8,10,12-tetraazatricyclo[9.4.0.0^2,7]pentadeca-1(11),2(7),3,5,12,14-hexaene-5-carbonitrile]",< 100
4,"CCN1C(=O)N(c2c(F)cc(NCCN3CCNCC3)cc2F)c2cc(C#N)ccc2-c2cc(Cl)cnc21 [1-155, 4-chloro-10-(2,6-difluoro-4-{[2-(piperazin-1-yl)ethyl]amino}phenyl)-8-ethyl-9-oxo-6,8,10-triazatricyclo[9.4.0.0^2,7]pentadeca-1(11),2(7),3,5,12,14-hexaene-13-carbonitrile]",< 100
5,"CCN1C(=O)N(c2c(F)cc(NCCNCCO)cc2F)c2cc(Cl)cc(C#N)c2-c2cc(F)cnc21 [1-134, 13-chloro-10-[2,6-difluoro-4-({2-[(2-hydroxyethyl)amino]ethyl}amino)phenyl]-8-ethyl-4-fluoro-9-oxo-6,8,10-triazatricyclo[9.4.0.0^2,7]pentadeca-1(11),2(7),3,5,12,14-hexaene-15-carbonitrile]",< 100
6,"CCN1C(=O)N(c2c(F)cc(NCCNCCO)cc2F)c2cc(C#N)cc(F)c2-c2cc(Cl)cnc21 [1-100, 4-chloro-10-[2,6-difluoro-4-({2-[(2-hydroxyethyl)amino]ethyl}amino)phenyl]-8-ethyl-15-fluoro-9-oxo-6,8,10-triazatricyclo[9.4.0.0^2,7]pentadeca-1(11),2(7),3,5,12,14-hexaene-13-carbonitrile]",< 100
7,"CCN1C(=O)N(c2c(F)cc(NCCN[C@H]3CC[C@H](C(=O)O)CC3)cc2F)c2cc(C#N)ccc2-c2cc(Cl)cnc21 [1-193, (1r,4r)-4-({2-[(4-{4-chloro-13-cyano-8-ethyl-9-oxo-6,8,10-triazatricyclo[9.4.0.0^2,7]pentadeca-1(11),2(7),3,5,12,14-hexaen-10-yl}-3,5-difluorophenyl)amino]ethyl}amino)cyclohexane-1-carboxylic acid]",< 100
8,"CCN1C(=O)N(c2c(F)cc(NC[C@H]3COCCN3)cc2F)c2cc(C#N)ccc2-c2cc(Cl)cnc21 [1-147, 4-chloro-10-[2,6-difluoro-4-({[(3S)-morpholin-3-yl]methyl}amino)phenyl]-8-ethyl-9-oxo-6,8,10-triazatricyclo[9.4.0.0^2,7]pentadeca-1(11),2(7),3,5,12,14-hexaene-13-carbonitrile]",< 100
9,"CCN1C(=O)N(c2c(F)cc(NCCN[C@H]3C[C@@H](O)C3)cc2F)c2cc(C#N)ccc2-c2cc(Cl)cnc21 [1-192, 4-chloro-10-{2,6-difluoro-4-[(2-{1[(1s,3s)-3-hydroxycyclobutyl]amino}ethyl)amino]phenyl}-8-ethyl-9-oxo-6,8,10-triazatricyclo[9.4.0.0^2,7]pentadeca-1(11),2(7),3,5,12,14-hexaene-13-carbonitrile]",< 100
10,"CCN1C(=O)N(c2c(F)cc(NCCNCCO)cc2F)c2cc(C#N)cc(C)c2-c2cc(F)cnc21 [1-63, 10-[2,6-difluoro-4-({2-[(2-hydroxyethyl)amino]ethyl}amino)phenyl]-8-ethyl-4-fluoro-15-methyl-9-oxo-6,8,10-triazatricyclo[9.4.0.0^2,7]pentadeca-1(11),2(7),3,5,12,14-hexaene-13-carbonitrile]",< 100
11,"CCN1C(=O)N(c2c(F)cc(NCCN[C@@H](CO)CC(=O)O)cc2F)c2cc(C#N)ccc2-c2cc(Cl)cnc21 [1-202, (3R)-3-({2-[(4-{4-chloro-13-cyano-8-ethyl-9-oxo-6,8,10-triazatricyclo[9.4.0.0^2,7]pentadeca-1(11),2(7),3,5,12,14-hexaen-10-yl}-3,5-difluorophenyl)amino]ethyl}amino)-4-hydroxybutanoic acid]",< 100
12,"CCN1C(=O)N(c2c(F)cc(NCCNCCO)cc2F)c2cc(C#N)cc(F)c2-c2cc(F)cnc21 [1-103, 10-[2,6-difluoro-4-({2-[(2-hydroxyethyl)amino]ethyl}amino)phenyl]-8-ethyl-4,15-difluoro-9-oxo-6,8,10-triazatricyclo[9.4.0.0^2,7]pentadeca-1(11),2(7),3,5,12,14-hexaene-13-carbonitrile]",< 100
13,"CN1C(=O)N(c2c(F)cc(NCCN)cc2F)c2cc(C#N)ccc2-c2cc(Cl)cnc21 [1-223, 10-{4-[(2-aminoethyl)amino]-2,6-difluorophenyl}-4-chloro-8-methyl-9-oxo-6,8,10-triazatricyclo[9.4.0.0^2,7]pentadeca-1(11),2(7),3,5,12,14-hexaene-13-carbonitrile]",< 100
14,"CCN1C(=O)N(c2c(F)cc(NC3CNC3)cc2F)c2cc(C#N)ccc2-c2cc(Cl)cnc21 [1-234, 10-{4-[(azetidin-3-yl)amino]-2,6-difluorophenyl}-4-chloro-8-ethyl-9-oxo-6,8,10-triazatricyclo[9.4.0.0^2,7]pentadeca-1(11),2(7),3,5,12,14-hexaene-13-carbonitrile]",< 100

# Results, then the compound that gave them:
row,Ki [nM],SMILES
1,< 100,"CCN1C(=O)N(c2c(F)cc(NCCNCCOC)cc2F)c2cc(Cl)ccc2-c2cc(Cl)cnc21 [1-74, 4,13-dichloro-10-[2,6-difluoro-4-({2-[(2-methoxyethyl)amino]ethyl}amino)phenyl]-8-ethyl-6,8,10-triazatricyclo[9.4.0.0^2,7]pentadeca-1(11),2(7),3,5,12,14-hexaen-9-one]"
2,< 100,"CCN1C(=O)N(c2c(F)cc(NCCNC)cc2F)c2cc(Cl)ccc2-c2c1ncc(Cl)c2C [3-5, 4,13-dichloro-10-(2,6-difluoro-4-{[2-(methylamino)ethyl]amino}phenyl)-8-ethyl-3-methyl-6,8,10-triazatricyclo[9.4.0.0^2,7]pentadeca-1(11),2(7),3,5,12,14-hexaen-9-one]"
3,< 100,"CCN1C(=O)N(c2c(F)cc(NCCNCCO)cc2F)c2cc(Cl)ccc2-c2cc(C(F)(F)F)cnc21 [1-56, 13-chloro-10-[2,6-difluoro-4-({2-[(2-hydroxyethyl)amino]ethyl}amino)phenyl]-8-ethyl-4-(trifluoromethyl)-6,8,10-triazatricyclo[9.4.0.0^2,7]pentadeca-1(11),2(7),3,5,12,14-hexaen-9-one]"
4,< 100,"CCN1C(=O)N(c2c(F)cc(NCCNCCCC(=O)O)cc2F)c2cc(Cl)ccc2-c2cc(C)cnc21 [1-25, 4-({2-[(4-{13-chloro-8-ethyl-4-methyl-9-oxo-6,8,10-triazatricyclo[9.4.0.0^2,7]pentadeca-1(11),2(7),3,5,12,14-hexaen-10-yl}-3,5-difluorophenyl)amino]ethyl}amino)butanoic acid]"
5,< 100,"CCN1C(=O)N(c2c(F)cc(N[C@@H](C)CNC)cc2F)c2cc(C#N)ccc2-c2cc(Cl)cnc21 [1-165, 4-chloro-10-(2,6-difluoro-4-{[(2S)-1-(methylamino)propan-2-yl]amino}phenyl)-8-ethyl-9-oxo-6,8,10-triazatricyclo[9.4.0.0^2,7]pentadeca-1(11),2(7),3,5,12,14-hexaene-13-carbonitrile]"
6,< 100,"CCN1C(=O)N(c2c(F)cc(NCCNCCO)cc2F)c2cc(Cl)ccc2-c2cc(C#N)cnc21 [1-90, 13-chloro-10-[2,6-difluoro-4-({2-[(2-hydroxyethyl)amino]ethyl}amino)phenyl]-8-ethyl-9-oxo-6,8,10-triazatricyclo[9.4.0.0^2,7]pentadeca-1(11),2(7),3,5,12,14-hexaene-4-carbonitrile]"
7,< 100,"CNCCNc1cc(F)c(N2C(=O)N(C)c3ncccc3-c3ccc(Cl)cc32)c(F)c1 [1-1, 13-chloro-10-(2,6-difluoro-4-{[2-(methylamino)ethyl]amino}phenyl)-8-methyl-6,8,10-triazatricyclo[9.4.0.0^2,7]pentadeca-1(11),2(7),3,5,12,14-hexaen-9-one]"
8,< 100,"CNCCNc1cc(F)c(N2C(=O)N(C)c3ncc(F)cc3-c3c(C)cc(Cl)cc32)c(F)c1 [1-75, 13-chloro-10-(2,6-difluoro-4-{[2-(methylamino)ethyl]amino}phenyl)-4-fluoro-8,15-dimethyl-6,8,10-triazatricyclo[9.4.0.0^2,7]pentadeca-1(11),2(7),3,5,12,14-hexaen-9-one]"
